Data reported in US5569665A, “Peptidyl derivatives and their use as metalloproteinases inhibitors” (Celltech Limited, priority 1992, dated 1996).
Counter-ions that a name gives are not always drawn.

How the values were obtained:
Assay type in all cases: biochemical
[1] = target: Collagenase; assay: Fluorimetric enzyme inhibition assay with peptide substrate (Example A), collagenase; details: Ki (app) assumed to approximate true Ki; substrate approx. 20 μm, pH 7.5, overnight
Description: (§1) All enzyme assays to determine Ki values were performed using the peptide substrate Dnp-Pro-Leu-Gly-Trp-Ala-D-Arg-NH2. (M. Sharon Stock and Rober D. Gray, JBC 264, 4277-81, 1989). The enzymes cleave at the Gly-Leu bond which can be followed fluorimetrically by measuring the increase in Trp fluorescence emission associated with the removal of the quenching dinitrophenol (Dnp) group.
(§2) Essentially, enzyme (e.g. gelatinase, stromelysin, coilagenase) at 0.08-2 nM; a range of inhibitor concentrations (0.1-50×Ki) and substrate (approx. 20 μm) are incubated overnight in 0.1M Tris/HCl buffer, pH 7.5, containing 0.1M NaCl, 10 mM CaCl2 and 0.05%. Brij 35 at either room temperature or 37° C. depending on the enzyme. The reaction is stopped by adjusting the pH to 4 using 0.1M sodium acetate buffer and the fluorescence read at an excitation wavelength of 280nm and emission wavelength of 346nm.
(§3) Ki values can be established using the equation for tight-binding inhibition: [formula] where Vo is the initial rate of reaction in the absence of inhibitor, Vi is the initial rate in the presence of inhibitor, [E] is the total enzyme concentration and [I] the total inhibitor concentration in the reaction mixture.
(§4) For stromelysin and collagenase, Ki (app) was assumed to approximate to the true Ki as [S]<<Km for the substrate hydrolysis. For gelatinase the Ki was determined by performing the analyses at several substrate concentrations. A plot of Ki (app) vs. [S] then gave the true Ki as the value of the y-axis intercept.

[2] = target: T1, Gelatinase -72 KD (Homo sapiens, UniProt P08253); assay: Fluorimetric enzyme inhibition assay with peptide substrate (Example A), gelatinase; details: true Ki from plot of Ki (app) vs. [S], y-axis intercept; pH 7.5, overnight
T1 sequence (P08253 110-660): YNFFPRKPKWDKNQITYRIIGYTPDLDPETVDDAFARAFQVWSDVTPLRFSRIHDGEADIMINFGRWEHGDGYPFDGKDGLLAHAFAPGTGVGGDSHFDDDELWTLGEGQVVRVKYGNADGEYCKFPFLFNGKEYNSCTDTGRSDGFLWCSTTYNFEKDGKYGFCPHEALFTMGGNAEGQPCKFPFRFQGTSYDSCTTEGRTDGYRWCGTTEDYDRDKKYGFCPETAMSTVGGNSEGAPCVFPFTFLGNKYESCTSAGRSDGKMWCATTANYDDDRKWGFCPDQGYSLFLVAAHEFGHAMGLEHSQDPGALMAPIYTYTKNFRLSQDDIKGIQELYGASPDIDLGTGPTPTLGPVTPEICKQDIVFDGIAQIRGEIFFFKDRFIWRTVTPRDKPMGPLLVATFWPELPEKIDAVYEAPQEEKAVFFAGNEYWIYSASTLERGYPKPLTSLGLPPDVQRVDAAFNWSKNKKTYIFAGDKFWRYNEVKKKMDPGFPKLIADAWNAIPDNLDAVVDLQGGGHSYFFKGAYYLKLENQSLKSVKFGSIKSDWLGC
Description: as §1, §2, §3, §4

[3] = target: Stromelysin-1 (Homo sapiens, UniProt P08254); assay: Fluorimetric enzyme inhibition assay with peptide substrate (Example A), stromelysin-1; details: Ki (app) assumed to approximate true Ki; substrate approx. 20 μm, pH 7.5, overnight
Description: as §1, §2, §3, §4

Stromelysin-1, sequence (P08254 100-477, species assumed): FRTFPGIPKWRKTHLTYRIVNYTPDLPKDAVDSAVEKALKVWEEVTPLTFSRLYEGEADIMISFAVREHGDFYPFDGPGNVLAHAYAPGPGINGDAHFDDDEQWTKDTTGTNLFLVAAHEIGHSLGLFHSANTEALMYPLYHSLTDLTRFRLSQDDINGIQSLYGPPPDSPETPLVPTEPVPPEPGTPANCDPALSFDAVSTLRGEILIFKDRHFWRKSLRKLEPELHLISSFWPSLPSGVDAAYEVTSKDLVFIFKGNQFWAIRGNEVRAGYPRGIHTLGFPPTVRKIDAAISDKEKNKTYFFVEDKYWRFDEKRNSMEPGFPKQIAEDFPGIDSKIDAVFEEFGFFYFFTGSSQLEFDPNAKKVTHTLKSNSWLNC

Compound	Ki [1]	Ki [2]	Ki [3]
O=C(O)C[C@@H](CCOc1ccccc1)C(=O)N[C@@H](CC1CCCCC1)C(=O)NCCc1ccccc1 [Example 2]	48800 nM	22.2 nM	1510 nM
O=C(C[C@@H](CCOc1ccccc1)C(=O)N[C@@H](CC1CCCCC1)C(=O)NCCc1ccccc1)NO [Example 3, 4-(N-Hydroxyamino)-2-(R)-(3-(2-phenoxyethyl)succinyl)-L-β-cyclohexylalanine-N-(2-phenylethyl)amide]	478 nM	0.273 nM	29.7 nM
O=C(C[C@@H](CCCc1ccncc1)C(=O)N[C@@H](CC1CCCCC1)C(=O)NCCc1ccccc1)NO [Example 5, {4-(N-hydroxyamino)-2(R)-(3-(4-pyridinium)propyl)succinyl}-L-β-cyclohexylalanine-N-(2-phenylethyl)amide trifluoroacetate]	186 nM	0.035 nM	12.6 nM
C[n+]1ccc(CCC[C@H](CC(=O)NO)C(=O)N[C@@H](CC2CCCCC2)C(=O)NCCc2ccccc2)cc1 [Example 6, {4-(N-hydroxyamino)-2-(R)-3-(N-methyl-4-pyridinium)propylsuccinyl}-L-β-cyclohexylalanine-N-(2-phenylethyl)amide iodide]	22000 nM	8.42 nM	681 nM
NS(=O)(=O)c1ccc(CCNC(=O)[C@H](CC2CCCCC2)NC(=O)[C@H](CCCc2ccncc2)CC(=O)NO)cc1 [Example 8, {4-(N-Hydroxyamino)-2-(R)-(3-(4-pyridinium)propyl)succinyl}-L-β-cyclohexylalanine-N-(2-(p-sulphonamidophenyl)ethyl)amide trifluoroacetate]	215 nM	0.059 nM	11.8 nM
